Where two headings read alike, the source gives them in different places.
Key:
primary CML cells = test: Loss of viability, trypan blue uptake; type: cell-based; conditions: Homo sapiens, 48 h
[1] = test system: hsp90 chaperone function in CML cells; conditions: previous studies, cited from earlier work
[2] = Loss of viability, trypan blue uptake; type: cell-based; conditions: human, Normal CD34+ cells
primary AML cells = test: Loss of viability, trypan blue uptake; type: cell-based; conditions: Homo sapiens
[3] = test system: FLT-3, p-STAT5, AKT, CDK4, hsp70 levels in MV4-11 cells; test: hsp90 client protein levels; type: cell-based, human; conditions: AUY922 alone
U937 cells = test: Apoptosis; type: cell-based, human; conditions: 20 to 50 nM, dose-dependently
MV4-11 cells [4] = test: Apoptosis, annexin V flow cytometry; conditions: 20 to 50 nM, dose-dependently, FIG. 1
Procedure: Following this, the percentages of annexin V-positive apoptotic cells were determined by flow cytometry. Values represent the mean±S.E.M. of three experiments.

[5] = test system: Bcr-Abl, p-STAT5, p-CrkL, AKT levels in K562 cells; test: hsp90 client protein levels; type: cell-based, human; conditions: 50-100 nM of AUY922
K562 cells [6] = test: Cell cycle status, propidium iodide flow cytometry; type: cell-based, human; conditions: for % of cells G0/G1 / % of cells G2/M / % of cells S: K562, 24 hours, mean ± S.E.M.
K562 cells [7] = test: Apoptosis; conditions: 50-100 nM
Procedure: FIG. 2 Analysis of dose effect relationship for AUY922 and LBH589 for the apoptotic effects after 48 hours of exposure was done according to the median effect of Chou and Talalay.

MV4-11 cells [8] = test: Cell cycle status, propidium iodide flow cytometry; type: cell-based, human; conditions: for % of cells G0/G1 / % of cells G2/M / % of cells S: MV4-11, 24 hours, mean ± S.E.M.

Structure (SMILES): Cc1[nH]c2ccccc2c1CCNCc1ccc(/C=C/C(=O)NO)cc1 [LBH589, N-hydroxy-3-[4-[[[2-(2-methyl-1H-indol-3-yl)-ethyl]-amino]methyl]phenyl]-2E-2-propenamide]
- cytotoxicity at 0.05 µM (primary CML cells; CML#1, 50 nmol/L LBH589, read-out: % non-viable cells): 43.3%
- cytotoxicity at 0.05 µM (primary CML cells; CML#2, 50 nmol/L LBH589, read-out: % non-viable cells): 21.4%
- cytotoxicity at 0.05 µM (primary CML cells; CML#3, 50 nmol/L LBH589, read-out: % non-viable cells): 47.8%
- cytotoxicity at 0.05 µM (primary CML cells; CML#4, 50 nmol/L LBH589, read-out: % non-viable cells): 37.6%
- client protein levels ([1]; CML cells): depletion of unmutated or mutant forms of Bcr-Abl, as well as of c-Raf and AKT
- hsp90 acetylation and chaperone function ([1]; by inhibiting HDAC 6): induces acetylation and inhibition of hsp90 chaperone function
- cytotoxicity at 48 h, 50 nmol/L ([2]; 50 nmol/L LBH589, read-out: % non-viable cells): 23.3%
- cytotoxicity at 0.05 µM (primary AML cells; 48 h, AML#2, 50 nmol/L LBH589, read-out: % non-viable cells): 54.7%
- cytotoxicity at 0.05 µM (primary AML cells; 48 h, AML#4, 50 nmol/L LBH589, read-out: % non-viable cells): 53.8%
- cytotoxicity at 0.05 µM (primary AML cells; 48 h, AML#5, 50 nmol/L LBH589, read-out: % non-viable cells): 61.8%
- cytotoxicity at 0.05 µM (primary AML cells; 48 h, AML#6, 50 nmol/L LBH589, read-out: % non-viable cells): 17.8%
- cytotoxicity at 0.05 µM (primary AML cells; 48 h, AML#7 CD34 enriched, 50 nmol/L LBH589, read-out: % non-viable cells): 56.7%
- cytotoxicity at 0.05 µM (primary AML cells; AML1, 48 h, AML#1, 50 nmol/L LBH589, read-out: % non-viable cells): 80.7%
- cytotoxicity at 0.05 µM (primary AML cells; AML3, 48 h, AML#3, 50 nmol/L LBH589, read-out: % non-viable cells): 46.3%

Structure (SMILES): CCNC(=O)c1noc(-c2cc(C(C)C)c(O)cc2O)c1-c1ccc(CN2CCOCC2)cc1 [AUY922, 5-(2,4-Dihydroxy-5-isopropyl-phenyl)-4-(4-morpholin-4-ylmethyl-phenyl)-isoxazole-3-carboxylic acid ethylamide]
- client protein levels [3]: depletion of FLT-3, p-STAT5, AKT, and CDK4 levels
- hsp70 levels [3]: induction of hsp70 levels
- induced apoptosis, % of cells (U937 cells): 40-60%
- cytotoxicity at 0.02 µM (primary CML cells; CML#1, 20 nmol/L AUY922, read-out: % non-viable cells): 29.1%
- cytotoxicity at 0.05 µM (primary CML cells; CML#1, 50 nmol/L AUY922, read-out: % non-viable cells): 33.6%
- cytotoxicity at 0.02 µM (primary CML cells; CML#2, 20 nmol/L AUY922, read-out: % non-viable cells): 9.6%
- cytotoxicity at 0.05 µM (primary CML cells; CML#2, 50 nmol/L AUY922, read-out: % non-viable cells): 13.9%
- cytotoxicity at 0.02 µM (primary CML cells; CML#3, 20 nmol/L AUY922, read-out: % non-viable cells): 21.1%
- cytotoxicity at 0.05 µM (primary CML cells; CML#3, 50 nmol/L AUY922, read-out: % non-viable cells): 25.3%
- cytotoxicity at 0.02 µM (primary CML cells; CML#4, 20 nmol/L AUY922, read-out: % non-viable cells): 30.5%
- cytotoxicity at 0.05 µM (primary CML cells; CML#4, 50 nmol/L AUY922, read-out: % non-viable cells): 32.8%
- induced apoptosis, % of cells (MV4-11 cells [4]): 40-60%
- cytotoxicity at 48 h, 20 nmol/L ([2]; 20 nmol/L AUY922, read-out: % non-viable cells): 30.8%
- cytotoxicity at 48 h, 50 nmol/L ([2]; 50 nmol/L AUY922, read-out: % non-viable cells): 31.6%
- client protein levels [5]: depleted Bcr-Abl, p-STAT, p-CrkL and AKT levels
- cytotoxicity at 0.02 µM (primary AML cells; 48 h, AML#2, 20 nmol/L AUY922, read-out: % non-viable cells): 54%
- cytotoxicity at 0.05 µM (primary AML cells; 48 h, AML#2, 50 nmol/L AUY922, read-out: % non-viable cells): 58.9%
- cytotoxicity at 0.02 µM (primary AML cells; 48 h, AML#4, 20 nmol/L AUY922, read-out: % non-viable cells): 43.2%
- cytotoxicity at 0.05 µM (primary AML cells; 48 h, AML#4, 50 nmol/L AUY922, read-out: % non-viable cells): 50%
- cytotoxicity at 0.02 µM (primary AML cells; 48 h, AML#5, 20 nmol/L AUY922, read-out: % non-viable cells): 32.1%
- cytotoxicity at 0.05 µM (primary AML cells; 48 h, AML#5, 50 nmol/L AUY922, read-out: % non-viable cells): 27.7%
- cytotoxicity at 0.02 µM (primary AML cells; 48 h, AML#6, 20 nmol/L AUY922, read-out: % non-viable cells): 11.9%
- cytotoxicity at 0.05 µM (primary AML cells; 48 h, AML#6, 50 nmol/L AUY922, read-out: % non-viable cells): 21.4%
- cytotoxicity at 0.02 µM (primary AML cells; 48 h, AML#7 CD34 enriched, 20 nmol/L AUY922, read-out: % non-viable cells): 70.1%
- cytotoxicity at 0.05 µM (primary AML cells; 48 h, AML#7 CD34 enriched, 50 nmol/L AUY922, read-out: % non-viable cells): 70.9%
- cytotoxicity at 0.02 µM (primary AML cells; AML1, 48 h, AML#1, 20 nmol/L AUY922, read-out: % non-viable cells): 38.8%
- cytotoxicity at 0.05 µM (primary AML cells; AML1, 48 h, AML#1, 50 nmol/L AUY922, read-out: % non-viable cells): 45.1%
- cytotoxicity at 0.02 µM (primary AML cells; AML3, 48 h, AML#3, 20 nmol/L AUY922, read-out: % non-viable cells): 40.1%
- cytotoxicity at 0.05 µM (primary AML cells; AML3, 48 h, AML#3, 50 nmol/L AUY922, read-out: % non-viable cells): 42.7%
- % of cells G0/G1 (K562 cells [6]; 20 nM): 31.04 ± 3.11%
- % of cells G2/M (K562 cells [6]; 20 nM): 8.54 ± 1.16%
- % of cells S (K562 cells [6]; 20 nM): 60.41 ± 2.01%
- % of cells G0/G1 (K562 cells [6]; 50 nM): 61.42 ± 5.30%
- % of cells G2/M (K562 cells [6]; 50 nM): 4.43 ± 2.78%
- % of cells S (K562 cells [6]; 50 nM): 34.14 ± 5.01%
- % of cells G0/G1 (K562 cells [6]; 100 nM): 58.30 ± 2.87%
- % of cells G2/M (K562 cells [6]; 100 nM): 21.73 ± 2.67%
- % of cells S (K562 cells [6]; 100 nM): 19.97 ± 0.31%
- % of cells G0/G1 (K562 cells [6]; 250 nM): 58.10 ± 4.47%
- % of cells G2/M (K562 cells [6]; 250 nM): 21.38 ± 3.07%
- % of cells S (K562 cells [6]; 250 nM): 20.47 ± 1.54%
- accumulation in G1 and G2/M phases, decline in S phase (K562 cells [6]; K562 cells): dose-dependently induced accumulation
- induced apoptosis, % of cells (K562 cells [7]): 30-50%
- % of cells G0/G1 (MV4-11 cells [8]; 5 nM): 62.23 ± 0.33%
- % of cells G2/M (MV4-11 cells [8]; 5 nM): 6.02 ± 0.74%
- % of cells S (MV4-11 cells [8]; 5 nM): 31.74 ± 0.42%
- % of cells G0/G1 (MV4-11 cells [8]; 10 nM): 63.54 ± 1.20%
- % of cells G2/M (MV4-11 cells [8]; 10 nM): 6.30 ± 0.92%
- % of cells S (MV4-11 cells [8]; 10 nM): 30.16 ± 0.39%
- % of cells G0/G1 (MV4-11 cells [8]; 20 nM): 85.71 ± 2.14%
- % of cells G2/M (MV4-11 cells [8]; 20 nM): 5.30 ± 0.71%
- % of cells S (MV4-11 cells [8]; 20 nM): 8.98 ± 2.41%
- % of cells G0/G1 (MV4-11 cells [8]; 50 nM): 79.57 ± 1.15%
- % of cells G2/M (MV4-11 cells [8]; 50 nM): 11.96 ± 1.26%
- % of cells S (MV4-11 cells [8]; 50 nM): 8.47 ± 2.30%
- accumulation in G1 and G2/M phases, decline in S phase (MV4-11 cells [8]; MV4-11 cells): dose-dependently induced accumulation

— patent US20100069458A1, “COMBINATION OF LBH589 WITH OTHER THERAPEUTIC AGENTS FOR TREATING CANCER” (priority 2007, published 2010)
